# Experimental data published in patent US8486969B2, “Therapeutic compounds” (Allergan, Inc., priority 2007, dated 2013).
# Experiments:
# Assay type in all cases: cell-based
# alpha2B receptor = biological target: T1, alpha2B receptor (Homo sapiens, UniProt P18089); experiment: RSAT assay (Receptor Selection and Amplification Technology), alpha2B; conditions: for EC50: RSAT, NIH-3T3 cells cotransfected with receptor and Gq/i5, ND = not determinable at concentrations less than 10 micromolar, read-out: Alpha 2B EC50; for Emax: maximal effect relative to standard full agonist brimonidine (UK14304), read-out: Alpha 2B intrinsic activity (IA), in parentheses
# T1 construct: expressed in transfected cells; host or cells: NIH-3T3 cells
# T1 sequence (P18089 1-450): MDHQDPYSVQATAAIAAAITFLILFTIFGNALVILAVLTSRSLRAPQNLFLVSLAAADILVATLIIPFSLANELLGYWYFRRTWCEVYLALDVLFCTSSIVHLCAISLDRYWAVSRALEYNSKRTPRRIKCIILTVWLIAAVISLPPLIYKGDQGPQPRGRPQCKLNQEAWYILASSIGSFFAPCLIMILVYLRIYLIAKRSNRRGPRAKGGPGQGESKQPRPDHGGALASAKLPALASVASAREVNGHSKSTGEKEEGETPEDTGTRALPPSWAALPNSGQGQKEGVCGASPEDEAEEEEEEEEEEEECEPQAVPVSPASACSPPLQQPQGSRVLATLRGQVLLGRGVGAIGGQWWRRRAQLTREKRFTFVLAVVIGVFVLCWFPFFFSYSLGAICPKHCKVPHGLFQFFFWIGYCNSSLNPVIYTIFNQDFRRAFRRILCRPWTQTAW
# Experimental: (§1) Receptor Selection and Amplification Technology (RSAT) Assay
# (§2) The RSAT assay measures a receptor-mediated loss of contact inhibition that results in selective proliferation of receptor-containing cells in a mixed population of confluent cells. The increase in cell number is assessed with an appropriate transfected marker gene such as β-galactosidase, the activity of which can be easily measured in a 96-well format. Receptors that activate the G protein, Gq, elicit this response. Alpha2 receptors, which normally couple to Gi, activate the RSAT response when coexpressed with a hybrid Gq protein that has a Gi receptor recognition domain, called Gq/i5.
# NIH-3T3 cells are plated at a density of 2×10^6 cells in 15 cm dishes and maintained in Dulbecco's modified Eagle's medium supplemented with 10% calf serum. One day later, cells are cotransfected by calcium phosphate precipitation with mammalian expression plasmids encoding p-SV-β-galactosidase (5-10 μg), receptor (1-2 μg) and G protein (1-2 μg). 40 μg salmon sperm DNA may also be included in the transfection mixture. Fresh media is added on the following day and 1-2 days later, cells are harvested and frozen in 50 assay aliquots. Cells are thawed and 100 μl added to 100 μl aliquots of various concentrations of drugs in triplicate in 96-well dishes. Incubations continue 72-96 hr at 37° C. After washing with phosphate-buffered saline, β-galactosidase enzyme activity is determined by adding 200 μl of the chromogenic substrate (consisting of 3.5 mM o-nitrophenyl-β-D-galactopyranoside and 0.5% nonidet P-40 in phosphate buffered saline), incubating overnight at 30° C. and measuring optical density at 420 nm. The absorbance is a measure of enzyme activity, which depends on cell number and reflects a receptor-mediated cell proliferation. The efficacy or intrinsic activity is calculated as a ratio of the maximal effect of the drug to the maximal effect of a standard full agonist for each receptor subtype. Brimonidine, also called UK14304, the chemical structure of which is shown below, is used as the standard agonist for the alpha2A, alpha2B and alpha2C receptors. The EC50 is the concentration at which the drug effect is half of its maximal effect.
# EC50 values are nanomolar. ND stands for “not determinable” at concentrations less than 10 micromolar. IA stands for “intrinsic activity.”
# alpha2A receptor = biological target: T2, alpha2A receptor (Homo sapiens, UniProt P08913); experiment: RSAT assay (Receptor Selection and Amplification Technology), alpha2A; conditions: read-out: Alpha 2A intrinsic activity (IA), in parentheses
# T2 construct: expressed in transfected cells; host or cells: NIH-3T3 cells
# T2 sequence (P08913 1-465): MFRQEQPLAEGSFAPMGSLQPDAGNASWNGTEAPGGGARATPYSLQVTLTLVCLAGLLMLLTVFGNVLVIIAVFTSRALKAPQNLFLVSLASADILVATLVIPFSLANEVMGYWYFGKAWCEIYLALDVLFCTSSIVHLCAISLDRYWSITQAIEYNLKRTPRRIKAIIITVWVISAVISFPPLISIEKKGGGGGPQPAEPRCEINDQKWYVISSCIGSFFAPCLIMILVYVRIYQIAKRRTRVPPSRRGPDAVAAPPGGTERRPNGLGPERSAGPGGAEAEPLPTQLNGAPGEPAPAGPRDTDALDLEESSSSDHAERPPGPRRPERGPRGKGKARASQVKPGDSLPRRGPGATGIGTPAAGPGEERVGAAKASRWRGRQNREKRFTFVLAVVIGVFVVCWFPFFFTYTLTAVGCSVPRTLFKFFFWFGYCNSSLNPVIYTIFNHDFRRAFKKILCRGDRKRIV
# Experimental: as §1, §2
# (§3) NIH-3T3 cells are plated at a density of 2×10^6 cells in 15 cm dishes and maintained in Dulbecco's modified Eagle's medium supplemented with 10% calf serum. […] After washing with phosphate-buffered saline, β-galactosidase enzyme activity is determined by adding 200 μl of the chromogenic substrate (consisting of 3.5 mM o-nitrophenyl-β-D-galactopyranoside and 0.5% nonidet P-40 in phosphate buffered saline), incubating overnight at 30° C. and measuring optical density at 420 nm. The absorbance is a measure of enzyme activity, which depends on cell number and reflects a receptor-mediated cell proliferation. […]
# alpha2C receptor = biological target: T3, alpha2C receptor (Homo sapiens, UniProt P18825); experiment: RSAT assay (Receptor Selection and Amplification Technology), alpha2C; conditions: maximal effect relative to standard full agonist brimonidine (UK14304); read-out: Alpha 2C intrinsic activity (IA), in parentheses
# T3 construct: expressed in transfected cells; host or cells: NIH-3T3 cells
# T3 sequence (P18825 1-462): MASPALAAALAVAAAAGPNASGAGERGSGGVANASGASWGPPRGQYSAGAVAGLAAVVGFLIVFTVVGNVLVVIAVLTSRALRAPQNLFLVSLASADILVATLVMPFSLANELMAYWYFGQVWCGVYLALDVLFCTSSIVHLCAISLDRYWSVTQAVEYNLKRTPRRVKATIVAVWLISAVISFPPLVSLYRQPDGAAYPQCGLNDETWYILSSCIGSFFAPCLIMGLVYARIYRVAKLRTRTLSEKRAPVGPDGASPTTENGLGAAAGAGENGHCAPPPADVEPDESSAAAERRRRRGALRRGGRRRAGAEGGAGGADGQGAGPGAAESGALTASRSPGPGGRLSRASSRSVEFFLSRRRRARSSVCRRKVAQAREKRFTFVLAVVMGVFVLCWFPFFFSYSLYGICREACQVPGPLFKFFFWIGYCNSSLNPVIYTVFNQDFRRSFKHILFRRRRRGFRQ
# Experimental: as §1, §2, §3
SMILES,EC50 (alpha2B receptor),Emax (alpha2B receptor),Emax (alpha2A receptor),Emax (alpha2C receptor)
c1cnc2c(c1)CCCC2NC1=NCCO1 (centres unmarked),545 nM,67%,3%,22%
c1cnc2c(n1)CCCC2NC1=NCCO1 (centres unmarked),271 nM,86%,16%,27%
